# Results published in the Kinase Knowledgebase extract (Sharma et al. 2016).
# How the values were obtained:
# CDK2 (human) [1] = target: CDK2 (human) (UniProt P24941); test: Enzyme Assay
# CDK2 (human) [2] = target: CDK2 (human) (UniProt P24941); test: Enzyme Assay; remark: listed apart in the source
SMILES,IC50 (CDK2 (human) [1]) [µM],IC50 (CDK2 (human) [2]) [µM]
Nc1nc(Nc2ccc(N3CCC(N4CCCC4)CC3)cc2)sc1C(=O)c1ccc2c(c1)OCCO2,3.49,
Cc1cccc(C(=O)c2sc(Nc3ccc(N4CCC(N5CCCC5)CC4)cc3)nc2N)c1,,2.62
CCc1cccc(C(=O)c2sc(Nc3ccc(N4CCC(N5CCNCC5)CC4)cc3)nc2N)c1,0.989,
Cc1cccc(C(=O)c2sc(Nc3ccc(N4CCC(N(C)C)CC4)cc3)nc2N)c1,,3.52

# Second part, the compound after the results:
IC50 (CDK2 (human) [1]) [µM],IC50 (CDK2 (human) [2]) [µM],SMILES
2.92,2.92,Cc1cccc(C(=O)c2sc(Nc3ccc(N4CCC(N5CCCCC5)CC4)cc3)nc2N)c1
0.97,,COc1cccc(C(=O)c2sc(Nc3ccc(N4CCC(N5CCCC(O)C5)CC4)cc3)nc2N)c1 (configuration not stated)
